In publication PMC3632601, “Polyacetylenes from Notopterygium incisum–New Selective Partial Agonists of Peroxisome Proliferator-Activated Receptor-Gamma” (PLoS ONE, 2013):
Values joined by “and” are separate entries in the source; they are usually repeats but may differ in a detail not shown here. Identical values can stand only once. “Also recorded” adds a separate entry of the source.

Legend:
human PPARβ/δ = target: T1, human PPARβ/δ (Homo sapiens, UniProt Q03181); test: PPARβ/δ luciferase reporter gene transactivation in transfected HEK-293 cells; format: cell-based; settings: HEK-293, tk-PPREx3-luc reporter, 18 h, 0.1–30 µM; n.d. = not detected up to 30 µM; read-out: PPARβ/δ activation EC50
T1 construct: expressed in transfected cells; host or cells: HEK-293
T1 sequence (Q03181 1-441): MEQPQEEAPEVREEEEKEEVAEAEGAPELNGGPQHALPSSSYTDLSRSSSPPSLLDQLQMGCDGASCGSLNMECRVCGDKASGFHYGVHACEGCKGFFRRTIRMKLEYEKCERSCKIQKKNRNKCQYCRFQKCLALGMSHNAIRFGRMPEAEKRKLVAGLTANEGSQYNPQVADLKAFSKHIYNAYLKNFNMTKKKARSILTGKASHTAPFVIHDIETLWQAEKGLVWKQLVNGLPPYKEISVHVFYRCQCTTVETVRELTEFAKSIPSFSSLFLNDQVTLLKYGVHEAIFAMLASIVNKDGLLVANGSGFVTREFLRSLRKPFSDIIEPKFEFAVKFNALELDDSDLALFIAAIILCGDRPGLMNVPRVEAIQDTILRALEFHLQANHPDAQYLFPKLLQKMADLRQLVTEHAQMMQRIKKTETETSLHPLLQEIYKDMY
Experimental: (§1) HEK-293 cells (ATCC, USA) were cultured in DMEM with phenol red, supplemented with 100 U/ml benzylpenicillin, 100 µg/ml streptomycin, 2 mM L-glutamine, and 10% FBS. Cells were maintained in 75 cm^2 flasks containing 10 ml medium at 37°C and 5% CO2. The cells were seeded in 10 cm dishes at a density of 6 × 10^6 cells/dish, incubated for 18 h, and transfected by the calcium phosphate precipitation method with 4 µg of the reporter plasmid (tk-PPREx3-luc), 4 µg from the respective PPAR subtype expression plasmid, and 2 µg green fluorescent protein plasmid (pEGFP-N1, Clontech, Mountain View, CA) as internal control. After 6 h, the transfected cells were harvested and re-seeded (5 × 10^4 cells/well) in 96-well plates containing DMEM without phenol red, supplemented with 100 U/ml benzylpenicillin, 100 µg/ml streptomycin, 2 mM L-glutamine, and 5% charcoal-stripped FBS. The cells were further treated with the indicated extracts or compounds or the solvent vehicle and incubated for 18 h. The medium was then discarded and the cells were lysed with a reporter lysis buffer (E3971, Promega, Madison, USA). Luciferase activity of the cell lysates was evaluated using a GeniosPro plate reader (Tecan, Grödig, Austria). The luminescence signals obtained from the luciferase activity measurements were normalized to the EGFP-derived fluorescence, to account for differences in the transfection efficiency or cell number.

human PPARα = target: T2, human PPARα (Homo sapiens, UniProt Q07869); test: PPARα luciferase reporter gene transactivation in transfected HEK-293 cells; format: cell-based; settings: HEK-293, tk-PPREx3-luc reporter, 18 h, 0.1–30 µM; n.d. = not detected up to 30 µM; read-out: PPARα activation EC50
T2 construct: expressed in transfected cells; host or cells: HEK-293
T2 sequence (Q07869 1-468): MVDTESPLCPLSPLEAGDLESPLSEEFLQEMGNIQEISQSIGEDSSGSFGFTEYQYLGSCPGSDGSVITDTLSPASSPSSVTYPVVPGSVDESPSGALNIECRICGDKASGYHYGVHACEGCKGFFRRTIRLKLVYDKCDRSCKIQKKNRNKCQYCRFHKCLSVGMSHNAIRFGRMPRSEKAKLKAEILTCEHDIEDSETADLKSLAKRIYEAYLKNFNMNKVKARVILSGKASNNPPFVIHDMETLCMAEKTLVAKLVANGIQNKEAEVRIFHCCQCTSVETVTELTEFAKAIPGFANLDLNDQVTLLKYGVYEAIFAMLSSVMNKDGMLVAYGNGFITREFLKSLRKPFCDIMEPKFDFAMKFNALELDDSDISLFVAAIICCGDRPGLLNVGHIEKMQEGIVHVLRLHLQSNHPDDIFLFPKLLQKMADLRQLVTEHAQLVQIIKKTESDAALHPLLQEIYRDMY
Experimental: as §1

human PPARγ = target: T3, human PPARγ (Homo sapiens, UniProt P37231); test: PPARγ luciferase reporter gene transactivation in transfected HEK-293 cells; settings: for PPARγ activation maximal fold activation: HEK-293, 18 h, fold induction above vehicle control (DMSO 0.1%)
T3 sequence (P37231 1-477 isoform P37231-2): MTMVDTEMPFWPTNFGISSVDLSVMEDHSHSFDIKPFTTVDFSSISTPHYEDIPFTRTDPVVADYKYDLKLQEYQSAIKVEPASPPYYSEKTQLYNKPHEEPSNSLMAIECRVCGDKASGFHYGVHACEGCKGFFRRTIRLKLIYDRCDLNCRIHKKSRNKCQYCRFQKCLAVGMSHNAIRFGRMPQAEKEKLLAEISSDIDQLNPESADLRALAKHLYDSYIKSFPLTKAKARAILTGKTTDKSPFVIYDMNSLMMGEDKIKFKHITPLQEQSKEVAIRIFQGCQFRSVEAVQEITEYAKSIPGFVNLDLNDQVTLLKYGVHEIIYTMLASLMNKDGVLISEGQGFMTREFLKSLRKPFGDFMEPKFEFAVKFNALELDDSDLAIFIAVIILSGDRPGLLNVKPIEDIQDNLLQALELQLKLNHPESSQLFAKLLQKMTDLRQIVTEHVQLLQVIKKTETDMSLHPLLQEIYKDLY
Experimental: HEK-293 cells (ATCC, USA) were cultured in DMEM with phenol red, supplemented with 100 U/ml benzylpenicillin, 100 µg/ml streptomycin, 2 mM L-glutamine, and 10% FBS. Cells were maintained in 75 cm^2 flasks containing 10 ml medium at 37°C and 5% CO2. The cells were seeded in 10 cm dishes at a density of 6 × 10^6 cells/dish, incubated for 18 h, and transfected by the calcium phosphate precipitation method [31] with 4 µg of the reporter plasmid (tk-PPREx3-luc), 4 µg from the respective PPAR subtype expression plasmid, and 2 µg green fluorescent protein plasmid (pEGFP-N1, Clontech, Mountain View, CA) as internal control. After 6 h, the transfected cells were harvested and re-seeded (5 × 10^4 cells/well) in 96-well plates containing DMEM without phenol red, supplemented with 100 U/ml benzylpenicillin, 100 µg/ml streptomycin, 2 mM L-glutamine, and 5% charcoal-stripped FBS. The cells were further treated with the indicated extracts or compounds or the solvent vehicle and incubated for 18 h. The medium was then discarded and the cells were lysed with a reporter lysis buffer (E3971, Promega, Madison, USA). Luciferase activity of the cell lysates was evaluated using a GeniosPro plate reader (Tecan, Grödig, Austria). The luminescence signals obtained from the luciferase activity measurements were normalized to the EGFP-derived fluorescence, to account for differences in the transfection efficiency or cell number.
(A) HEK-293 cells were transiently co-transfected with a plasmid encoding full-length human PPARγ, a reporter plasmid containing PPRE coupled to a luciferase reporter and an EGFP plasmid as internal control. […] The data shown are means ± SD of three independent experiments each performed in quadruplet. ***p<0.001, *p<0.05 (compared to the solvent vehicle group; ANOVA/Bonferroni).
The data points shown are means ± SEM of three independent experiments each performed in quadruplet. (B) Cells were transfected and treated as indicated above. […] (C) The cells were prepared as indicated above and treated for 18 h with different concentrations of falcarindiol, always in the presence of 1 µM pioglitazone. The data shown are means ± SD of three independent experiments each performed in quadruplet.

3T3-L1 preadipocytes = test: Adipogenicity: 3T3-L1 preadipocyte differentiation, Oil Red O staining; format: cell-based; settings: 10 µM, with 1 µg/ml insulin, compared with pioglitazone 10 µM; listed as falcarindiol
Experimental: 3T3-L1 preadipocytes (ATCC, USA) were propagated in DMEM supplemented with 10% calf serum. […]. The medium was renewed every two days until day 8. For an estimate of lipid accumulation, Oil Red O staining was performed. For this, cells were fixed in 10% formaldehyde for 1 h and stained with Oil Red O for 10 min. After washing off excessive dye, bound dye was solubilized with 100% isopropanol and photometrically quantified at 550 nm. For better appreciation of the adipogenic potential of the investigated PPARγ agonists, a subset of preadipocytes was treated according to a common standard differentiation protocol (2 days in DMEM/10% FBS/500 µM IBMX/500 nM dexamethasone and 1 µg/mL insulin (MDI), followed by 2 days in DMEM/10% FBS/1 µg/ml insulin and 6 days in DMEM/10% FBS).
Figure 4 Assessment of adipogenicity and glucose uptake-enhancing properties of falcarindiol. […]; containing 10% FBS, 500 µM IBMX, 500 nM dexamethasone, and 1 µg/ml insulin) as a positive control. For an estimate of accumulated lipids, and thus for the adipogenic potential of the test compounds, Oil Red O staining and photometric quantification at 550 nm was performed. […] (B) 3T3-L1 mature adipocytes were incubated with falcarindiol (10 µM) or solvent vehicle (0.1% DMSO) for 48 h and 2-deoxy-D-(1H^3)-glucose cellular uptake was determined for 10 min in the presence or absence (basal uptake) of insulin (500 pM). […]

3T3-L1 adipocytes = test: 2-Deoxy-D-(1H^3)-glucose uptake in differentiated 3T3-L1 adipocytes; format: cell-based; settings: 10 µM for 48 h, insulin 500 pM, vs vehicle, listed as falcarindiol
Experimental: Confluent 3T3-L1 preadipocytes (ATCC, USA) were differentiated (day 0) into mature adipocytes for 10 days (2 days in DMEM supplemented with 10% FBS, […], 1 µg/ml insulin and 500 nM dexamethasone followed by 2 days in DMEM/10% FBS/1 µg/ml insulin and 6 days in DMEM/10% FBS), and incubated with the test compounds (10 µM) or 0.1% DMSO as vehicle control for 48 h at 37°C. Before the experiment, cells were incubated for 4 h in DMEM/0.1% BSA followed by 1 h in KRH/BSA buffer (50 mM HEPES, 136 mM NaCl, 23.5 mM KCl, 1.25 mM MgSO4, 1.25 mM CaCl2 and 0.1% BSA). […] The glucose uptake rate was determined by liquid scintillation counting (Perkin Elmer, Waltham, MA, USA) of cell lysates (20 mM HEPES, 1% Igepal CA-630), and normalized to protein content assessed by the Bradford protein assay.
Figure 4 Assessment of adipogenicity and glucose uptake-enhancing properties of falcarindiol. […] For an estimate of accumulated lipids, and thus for the adipogenic potential of the test compounds, Oil Red O staining and photometric quantification at 550 nm was performed. […] (B) 3T3-L1 mature adipocytes were incubated with falcarindiol (10 µM) or solvent vehicle (0.1% DMSO) for 48 h and 2-deoxy-D-(1H^3)-glucose cellular uptake was determined for 10 min in the presence or absence (basal uptake) of insulin (500 pM). […]

[1] = target: T4, human PPARγ ligand-binding domain (LBD) (Homo sapiens, UniProt P37231); test: LanthaScreen TR-FRET PPARγ competitive binding assay; settings: purified human PPARγ-LBD, 6 h incubation, Cheng-Prusoff from IC50
T4 construct: purchased Invitrogen
T4 sequence (P37231 238-503 limits assumed): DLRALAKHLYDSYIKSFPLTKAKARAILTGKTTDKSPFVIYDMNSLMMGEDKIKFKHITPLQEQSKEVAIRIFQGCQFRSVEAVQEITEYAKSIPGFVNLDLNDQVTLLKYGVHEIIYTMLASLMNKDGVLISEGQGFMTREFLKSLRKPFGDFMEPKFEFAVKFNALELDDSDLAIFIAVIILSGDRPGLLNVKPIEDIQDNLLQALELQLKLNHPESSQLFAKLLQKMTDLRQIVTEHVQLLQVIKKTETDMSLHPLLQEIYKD
Experimental: The LanthaScreen® time-resolved fluorescence resonance energy transfer (TR-FRET) PPARγ competitive binding assay (Invitrogen, Lofer, Austria) was performed according to the manufacturer’s protocol. The test compounds dissolved in DMSO or the blank solvent vehicle (DMSO) were incubated together with the human PPARγ ligand-binding domain (LBD) tagged with GST, a terbium-labeled anti-GST antibody, and a fluorescently labeled PPAR ligand (Fluormone Pan-PPAR Green, Invitrogen). In this assay, the fluorescently labeled ligand is binding to the human PPARγ LBD, which brings it in close spatial proximity to the terbium-labeled anti-GST antibody. Excitation of the terbium at 340 nm results in energy transfer (FRET) and partial excitation of the fluorescently labeled PPAR ligand, followed by emission at 520 nm. Test-compounds binding to the human PPARγ LBD are competing with the fluorescently labeled ligand and displacing it, resulting in a decrease of the FRET signal. […] All measurements were performed with a GeniosPro plate reader (Tecan, Grödig, Austria).
One-way analysis of variance (ANOVA) with Bonferroni post hoc test, or two-tailed paired t-test was used to determine statistical significance. […]

SMILES	EC50 (human PPARβ/δ)	EC50 (human PPARα)	EC50 (human PPARγ)	PPARγ activation maximal fold activation (human PPARγ)	3T3-L1 adipocyte differentiation (lipid accumulation, Oil Red O) (3T3-L1 preadipocytes)	insulin-mediated glucose uptake (3T3-L1 adipocytes)	share of the stimulating effect of pioglitazone blocked by co-treatment (human PPARγ; co-treatment with 1 µM pioglitazone, 18 h, maximal block)	stimulating effect upon co-treatment with PPARγ antagonist T0070907 (human PPARγ; falcarindiol 10 µM, T0070907 1 µM)	Ki [1]
CCCCCCC/C=C\CC#CC#CCCCO [compound 5, 9Z-heptadecene-4,6-diyne-1-ol]	> 30 µM	> 30 µM	11.3 µM	1.92 fold	–	–	–	–	–
C=C[C@@H](O)C#CC#C[C@H](/C=C\CCCCCCC)OC(C)=O [compound 1, 3R,8S,9Z-3-hydroxyheptadeca-1,9-diene-4,6-diyne-8-yl acetate]	> 30 µM	> 30 µM	3.59 µM	2.36 fold	–	–	–	–	–
C=C[C@@H](O)C#CC#C[C@@H](O)C1OC1CCCCCCC (stereo partly drawn) [compound 3, 1R,6R-1-(3-heptyloxiran-2-yl)octa-7-ene-2,4-diyne-1,6-diol]	> 30 µM	> 30 µM	2.03 µM	1.88 fold	–	–	–	–	–
CCCCCCC/C=C\CC#CC#C/C=C\CO [compound 6, 2Z,9Z-heptadecadiene-4,6-diyne-1-ol]	> 30 µM	> 30 µM	4.18 µM	1.73 fold	–	–	–	–	–
C=C[C@@H](O)C#CC#C[C@@H](O)/C=C\CCCCCCC [compound 2, 3R,8S,9Z-heptadeca-1,9-diene-4,6-diyne-3,8-diol]	> 30 µM	> 30 µM	3.29 µM	3.26 fold	induced 3T3-L1 preadipocyte differentiation; also recorded: induced the differentiation to adipocytes as expected, although to a smaller extent than pioglitazone	significantly enhanced	70–80%	blocked	3.07 µM and 3.1 µM
C=C[C@@H](O)/C=C/C#C[C@@H](O)/C=C\CCCCCCC [compound 4, 3R,4E,8S,9Z-heptadeca-1,4,9-triene-6-yne-3,8-diol]	> 30 µM	> 30 µM	4.58 µM	2.29 fold	–	–	–	–	–
